Laboratory results reported in patent publication US20080233159A1, “Home-use insecticide” (priority 2007, published 2008).

What was measured:
house flies = settings: microdrop method, prallethrin isomers, d/d-trans isomer = 100; cited from earlier work
female house flies = test: Comparative efficacy test by the microdrop method, subject compound and its seven other isomers; format: in vivo; settings: for Insecticidal Efficacy Relative efficacy ratio: subject compound = 100
Procedure: 2-Methyl-4-oxo-3-(2-propynyl)-2-cyclopenten-1-yl 2,2-dimethyl-3-(2,2-dichlorovinyl)cyclopropanecarboxylate has a total of eight isomers based on two asymmetric carbon atoms of the acid portion and one asymmetric carbon atom of the alcohol portion. Therefore, a comparative efficacy test was conducted on female house flies using the microdrop method for the subject compound and the other seven isomers.

[1] = tested on: House flies (female adults); test: Glass chamber method, test aerosols; format: in vivo; settings: for Mortality: 10 minutes exposure, kill rate after additional 24 hours; for KT50 value: glass chamber 0.216 m^3, 1 second spray
Procedure: Glass chamber method: test aerosol insecticides prepared in accordance with Example 1 were sprayed for 1 second in a glass chamber having a volume of 60×60×60 cm (0.216 m^3). House flies (in groups of about 25 female adults each) were released into the chamber 10 seconds later, and the numbers of test […] that fell to the ground and rolled over during 10 minutes of exposure were recorded over the course of time to determine the KT50 values followed by observation of the kill rate after an additional 24 hours.

[2] = tested on: adult male American cockroaches; test: Turntable method, test aerosols; format: in vivo; settings: 0.35 g/300 ml aerosol; for KT50 value: 1 second spray, 5 minutes exposure
Text: (2-a) Turntable Method: A glass cylinder having an inner diameter of 20 cm and height of 43 cm was placed on a wooden stand and a glass pot (outer diameter: 15 cm, height: 15 cm) containing two adult male American cockroaches was attached directly beneath the cylinder by using a glass plate as a shutter. Test aerosol insecticides prepared in accordance with Example 1 were sprayed into the glass cylinder for 1 second. Five seconds later, the glass plate shutter was pulled out and the test cockroaches were exposed to the descending aerosol particles for 5 minutes. The range of times until the occurrence of knockdown and the approximate average times were determined followed by observation of mortality 24 hours later. This test was repeated six times.

American cockroaches = test: Residual contact method, test aerosols on decorative sheet; format: in vivo; settings: for Mortality after 72 hours, After 1 day of spray: 0.35 g/300 ml aerosol at 25 mL/m^2, 2 hours contact 1 day after spraying
Procedure: (2-b) Residual Contact Method: The test aerosols were sprayed onto a decorative sheet measuring 20 cm on a side at the rate of 25 mL/m^2. After 1 day of spraying, a glass ring measuring 12 cm in diameter was placed on the decorative sheet and five American cockroaches were contacted with the sheet for 2 hours inside the ring at 1, 7, 15 and 21 days after spraying followed by observation of mortality 72 hours later.

[3] = Solubility / compatibility with kerosene; format: physicochemical

| Compound | Relative efficacy ratio (house flies) | Insecticidal Efficacy LD50 (female house flies) | Insecticidal Efficacy Relative efficacy ratio (female house flies) | further results |
| --- | --- | --- | --- | --- |
| 2-Methyl-4-oxo-3-(2-propynyl)-2-cyclopenten-1-yl 2,2-dimethyl-3-(2,2-dichlorovinyl)cyclopropanecarboxylate [Compound 2] | 39 |  |  |  |
| C#CCC1=C(C)C(OC(=O)C2C(C=C(Cl)Cl)C2(C)C)CC1=O (stereo not drawn) [Compound 4, 2-Methyl-4-oxo-3-(2-propynyl)-2-cyclopenten-1-yl 2,2-dimethyl-3-(2,2-dichlorovinyl)cyclopropanecarboxylate] | 13 | 0.376 μg/insect | 7.0 |  |
| C#CCC1=C(C)C(OC(=O)C2C(C=C(Cl)Cl)C2(C)C)CC1=O (stereo not drawn) [Compound 5, 2-Methyl-4-oxo-3-(2-propynyl)-2-cyclopenten-1-yl 2,2-dimethyl-3-(2,2-dichlorovinyl)cyclopropanecarboxylate] | 1.3 | 0.337 μg/insect | 7.8 |  |
| C#CCC1=C(C)C(OC(=O)C2C(C=C(Cl)Cl)C2(C)C)CC1=O (stereo not drawn) [Compound 8, 2-Methyl-4-oxo-3-(2-propynyl)-2-cyclopenten-1-yl 2,2-dimethyl-3-(2,2-dichlorovinyl)cyclopropanecarboxylate] | 0.2 | 5.30 μg/insect | 0.5 |  |
| C#CCC1=C(C)C(OC(=O)C2C(C=C(Cl)Cl)C2(C)C)CC1=O (stereo not drawn) [Compound 7, 2-Methyl-4-oxo-3-(2-propynyl)-2-cyclopenten-1-yl 2,2-dimethyl-3-(2,2-dichlorovinyl)cyclopropanecarboxylate] | 0.2 | 3.29 μg/insect | 0.8 |  |
| C#CCC1=C(C)C(OC(=O)C2C(C=C(Cl)Cl)C2(C)C)CC1=O (stereo not drawn) [Compound 2, 2-Methyl-4-oxo-3-(2-propynyl)-2-cyclopenten-1-yl 2,2-dimethyl-3-(2,2-dichlorovinyl)cyclopropanecarboxylate] |  | 0.0415 μg/insect | 63.0 |  |
| C#CCC1=C(C)C(OC(=O)[C@H]2[C@H](C=C(Cl)Cl)C2(C)C)CC1=O (relative stereo) [Compound 1, (d)-2-methyl-4-oxo-3-(2-propynyl)-2-cyclopenten-1-yl (d)-trans-2,2-dimethyl-3-(2,2-dichlorovinyl)cyclopropanecarboxylate] | 100 | 0.0263 μg/insect | 100 | Mortality ([1]; 0.15 g/300 ml aerosol): 93.3%; Mortality ([1]; 0.45 g/300 ml aerosol): 100%; KT50 value ([1]; 0.15 g/300 ml aerosol): 73 s; KT50 value ([1]; 0.45 g/300 ml aerosol): 36 s; Mortality after 24 hours [2]: 100%; KT50 value [2]: 102 s; Mortality after 72 hours, After 1 day of spray (American cockroaches): 100%; Mortality after 72 hours, After 7 days (American cockroaches; 0.35 g/300 ml aerosol at 25 mL/m^2, 2 hours contact 7 days after spraying): 100%; Mortality after 72 hours, After 15 days (American cockroaches; 0.35 g/300 ml aerosol at 25 mL/m^2, 2 hours contact 15 days after spraying): 100%; Mortality after 72 hours, After 21 days (American cockroaches; 0.35 g/300 ml aerosol at 25 mL/m^2, 2 hours contact 21 days after spraying): 100%; Solubility in / compatibility with kerosene [3]: satisfactory compatibility with solvents such as kerosene |
| C#CCC1=C(C)C(OC(=O)C2C(C=C(Cl)Cl)C2(C)C)CC1=O (stereo not drawn) [Compound 6, 2-Methyl-4-oxo-3-(2-propynyl)-2-cyclopenten-1-yl 2,2-dimethyl-3-(2,2-dichlorovinyl)cyclopropanecarboxylate] | 0.4 | 0.526 μg/insect | 5.0 |  |
| C#CCN1CC(=O)N(COC(=O)[C@@H]2C(C=C(C)C)C2(C)C)C1=O (mixture of isomers) [Imiprothrin, imiprothrin, reference compound] |  |  |  | Mortality after 24 hours [2]: 83%; KT50 value [2]: 51 s; Mortality after 72 hours, After 1 day of spray (American cockroaches): 0%; Solubility in / compatibility with kerosene [3]: extremely poor solubility in kerosene |
| C#CCC1=C(C)C(OC(=O)C2C(C=C(Cl)Cl)C2(C)C)CC1=O (stereo not drawn) [Compound 3, 2-Methyl-4-oxo-3-(2-propynyl)-2-cyclopenten-1-yl 2,2-dimethyl-3-(2,2-dichlorovinyl)cyclopropanecarboxylate] | 17 | 0.245 μg/insect | 11.0 |  |
| d-T80-phthalthrin [reference compound] |  |  |  | Mortality ([1]; 0.15 g/300 ml aerosol): 20.0%; Mortality ([1]; 0.45 g/300 ml aerosol): 39.2%; KT50 value ([1]; 0.15 g/300 ml aerosol): 204 s; KT50 value ([1]; 0.45 g/300 ml aerosol): 73 s; Mortality after 24 hours [2]: 33%; KT50 value [2]: >300 s |
